The text below walks through data of ChEMBL document CHEMBL5223177, “Pyrazole Ureas as Low Dose, CNS Penetrant Glucosylceramide Synthase Inhibitors for the Treatment of Parkinson's Disease” (ACS Med Chem Lett, 2023).

Each structure is given as a SMILES string.

The target of assay [1] is T1, Ceramide glucosyltransferase (Homo sapiens, UniProt Q16739).
T1 sequence (Q16739 whole entry): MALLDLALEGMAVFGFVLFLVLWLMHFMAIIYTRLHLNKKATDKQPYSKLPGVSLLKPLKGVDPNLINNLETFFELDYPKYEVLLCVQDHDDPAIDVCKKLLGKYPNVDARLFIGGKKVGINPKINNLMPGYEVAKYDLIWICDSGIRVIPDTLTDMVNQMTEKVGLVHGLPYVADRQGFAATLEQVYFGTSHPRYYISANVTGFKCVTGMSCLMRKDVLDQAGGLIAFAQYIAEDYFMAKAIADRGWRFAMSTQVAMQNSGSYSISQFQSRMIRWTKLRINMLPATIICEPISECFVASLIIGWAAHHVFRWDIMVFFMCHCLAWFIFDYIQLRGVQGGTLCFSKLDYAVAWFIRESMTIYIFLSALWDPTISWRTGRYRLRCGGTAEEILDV
Description: (§1) Inhibition of GCS in human iPSC derived neurons assessed as reduction in […] GlcCer levels. The class given is cell-based, Neuron.

Assay [2] concerns the target T2, Ceramide glucosyltransferase (Homo sapiens) (UniProt Q16739).
T2 sequence (whole entry): T1 sequence (Q16739 whole entry)
The assay is described as §1. The assay is classed as cell-based. As to conditions: Neuron.

A further assay has as its system Neuron. Description: Protection against PFFs induced lysosomal impairment in human iPSC derived neurons assessed as increase in lysosomal hydrolysis pretreated for 1 day followed by PFFs stimulation and measured after 14 days by immunocytochemistry analysis. The assay is classed as functional, cell-based. As to conditions: time 15.0 day.

As for `Cl.O=C(N1CCN2CCC1CC2)n1nc(-n2cc(C(F)(F)F)cn2)c2c1COCC2`, in assay [1], the half-maximal inhibitory concentration (IC50) (commonly the concentration needed to halve the response being measured) came out at 1.7 nM. Also, the inhibition entry in assay [2] is “Dose-Dependent Effect”. The Activity entry with Neuron is “Dose-Dependent Effect”.
